Patent US20230040597A1, “USE OF NICOLSAMIDE FORMULATIONS FOR ANTIVIRAL THERAPY” (priority 2020, published 2023)
pEC50: −log10 of the molar value. ≈ marks a conversion by molar mass, not a printed value. Like-named read-outs stand apart in the source and are kept apart here.

Experiments:
human sperm = assay: Dose-dependent effect of niclosamide on sperm motility in fresh human semen; assay type: cell-based
Method: FIG. 1 is a graph depicting the dose dependent effect of niclosamide dissolved in DMSO, on sperm motility. Fresh human semen samples were mixed with the different concentrations of niclosamide in vitro, followed by analysis of sperm motility within 2 minutes. The x-axis depicts the different concentrations of niclosamide mixed with the semen sample. The x-axis, from Left to Right: the gray bar depicts an untreated semen sample, the blue bar depicts a vehicle control, and the eight pink bars depict the increasing concentrations of niclosamide tested. […] The y-axis depicts the percentage (%) inhibition in sperm motility of each semen sample treated with a concentration of niclosamide o normalized to the sperm motility of a control sample. Change in sperm motility relative to control treated sample is shown as mean +/−standard error of the mean (S.E.M.) for the aggregate of individual experiments.
Sperm motility is a functional measurement of the sperm themselves. Sperm may be sampled directly from semen or from washed sperm samples, and assessed for motility either manually or by CASA (Computer Assisted Sperm Analysis) (Chapter 59—Male Reproductive System. Systems Toxicologic Pathology. Dianne M. Creasy, Robert E. Chapin, in Haschek and Rousseaux's Handbook of Toxicologic Pathology (Third Edition), 2013; Amann R P et al. Computer-assisted sperm analysis (CASA): capabilities and potential developments. Theriogenology. 2014 Jan. 1; 81(1):5-17).
Sperm motility (expressed as %) may be evaluated in duplicate within 1 h of semen collection, by counting moving and nonmoving sperm in several microscopic fields. […] In preferred embodiments, only complete spermatozoa (head with tail) are included in such counts. Slow-moving sperm (class B+C) can be easily and accurately counted compared with rapidly moving (class A) sperm. A multi-button tally, preferably a digital one, is used to differentially count such motility (for additional detail, see Chapter 23: Standardized semen analysis and quality control management for multicenter male reproductive toxicology clinical trials, Sikka S. C. et al., in Bioenvironmental Issues Affecting Men's Reproductive and Sexual Health, 2018, the contents of which are incorporated herein by reference in their entirety).
After 2 minutes of incubation with the formulation, the semen samples were collected and analyzed for sperm motility. […] Data were collected within 2 minutes after mixing the formulation in gel form, with fresh semen, so the effects are instantaneous. As for timing, the gel may be applied 15-20 minutes prior to intercourse to allow gelling to fully occur. Furthermore, the gel may not be efficacious after residing in the vagina for longer than 1 hour.

SARS-CoV-2 = assay: microbe, parasite or virus in culture; assay type: cell-based; conditions: Severe acute respiratory syndrome coronavirus 2, Vero C1008; Vero E6 cells; reporter SARS-CoV-2 MOI of 0.1; luciferase at 24 h post-infection; 0.5% DMSO; read-out: antiviral EC50
[1] = Saturation solubility in buffers (shake flask method); conditions: 0.1 N HCl, 0.01 N HCl, pH 3.0 and 4.0 acid phthalate buffer, pH 4.5 and 5.1 acetate buffer
physchem = conditions: 25 °C, water
[2] = Drug-excipient compatibility study (related substances of binary mixtures); assay type: physicochemical
Method: Proposed drug to excipient ratio was selected based on the function of the excipient and maximum concentration to be used. Drug and excipient binary mixtures were prepared by uniform mixing. The blends were packed in clear glass vials and the compatibility was evaluated in closed conditions. In the closed-vial study, the dry mix samples were filled in vials with screw stopper fitting covered with parafilm and stored at 40° C./75% RH, 25° C./60% RH and 2° C.-8° C. storage condition up to 4 weeks. Samples at 40° C./75% RH and 25° C./60% RH were checked for physical description and analyzed for related substances, initially, at 2 weeks and at 4 weeks. Ratio of drug substance to excipients in blend for the compatibility study, are as follows: a) niclosamide:gelling agents/mucoadhesive agents was 1:15; b) niclosamide:solvents/co-solvents was 1:5; c) niclosamide:pH adjusting agents/neutralizing agents was 1:1; and d) niclosamide: preservatives/anti-oxidants was 1:0.5. Summary of physical description and related substances analysis of binary mixtures of API & excipients at initial and 40° C./75% RH-4 weeks condition are presented below in Table 8.
The impurities detected were as follows: Impurity-1 (5-chloro salicylic acid); Impurity-2 (2-chloro-4-nitro aniline); Impurity-3 (N-(2-chloro-4-nitrophenyl)-2-hydroxybenzamide); Impurity-4 (3,5-dichloro-N-(2-chloro-4-nitrophenyl)-2-hydroxybenzamide); and Impurity-5 (3-chloro-N-(2-chloro-4-nitrophenyl)-2-hydroxybenzamide).

[3] = assay type: physicochemical
Method: Saturation solubility of niclosamide was studied in the solvents, to know the highest concentration of niclosamide that can be solubilized, as depicted in table 6.
Heating and stirring improved solubilization of niclosamide in polyethylene glycol. […] In further formulation studies, drug substance concentration >7% w/w was desired, so 65° C. of temperature was used for solubilization of API.

[4] = 40° C./75% RH, 4 Weeks, closed vial

SMILES: O=C(Nc1ccc([N+](=O)[O-])cc1Cl)c1cc(Cl)ccc1O [niclosamide]
- Minimum dose to see effect (inhibits sperm motility) (human sperm): 4 mM
- Minimum dose to see effect (inhibits sperm motility), Amount (w/w) (human sperm): 0.13%
- inhibition at 10000 µM (human sperm; Sperm, 2 min, 10 mM niclosamide, fresh human semen, within 2 minutes, relative to control, read-out: percentage (%) inhibition in sperm motility): 100%
- Concentration giving complete inhibition of sperm motility (human sperm; semen sample vs control sample, 2 minutes incubation): ≥ 10 mM
- pEC50 (SARS-CoV-2): 6.82
- solubility in studied buffers [1]: insoluble
- Solubility (physchem): 5 µg/mL (≈ 15.3 µM)
- Imp-3 [2, 4]: 0.026%
- Imp-4 [2, 4]: 0.012%
- Imp-5 [2, 4]: 0.014%
- Single Max Unk Imp [2, 4]: 0.007%
- Total Impurities [2, 4]: 0.06%
- Imp-3 ([2]; Initial): 0.029%
- Imp-4 ([2]; Initial): 0.009%
- Single Max Unk Imp ([2]; Initial): 0.010%
- Total Impurities ([2]; Initial): 0.05%
- maximum solubility [3]: 5 % w/w
- Solubility (pH 1.2): Nil
- Solubility (pH 2): Nil
- Solubility (pH 3): Nil
- Solubility (pH 4): Nil
- Solubility (pH 4.5): Nil
- Solubility (pH 5.1): Nil
